Test systems include M14; CCRF-CEM; COLO 205; TK-10; SW-620; NCI-H226; EKVX; SF-295; A549; OVCAR-4; LOX IMVI; CAKI-1; NCI-H23; HOP-62; UACC-62; 786-0; UO-31.
Common to all, as to test: NCI-60 cell line screen, 48 h

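Where inhibition never reached the appropriate level, the endpoint shown equals the highest concentration tested. Otherwise, values were interpolated linearly from a five-concentration, 48-hour dose response in 96-well plates. The concentration for 50% growth inhibition is given as GI50.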 Activity calls are given as the source filed them. Cut-off read from the data, not from the text of the source: active = GI50 up to about 1.1 µM and inactive = higher.

Consider `CCCCCCCSCC1OC(n2cnc3c(N)ncnc32)C(O)C1O` (configuration not stated), for which the GI50 in the assay with M14 is 22.5 µM (inactive); with CCRF-CEM, 39.4 µM (inactive); in the assay on COLO 205, 14 µM (inactive); in the assay on TK-10, > 100 µM (inactive); with SW-620 it was 13.3 µM (inactive); in the assay on NCI-H226, > 100 µM (inactive). Besides, the GI50 was 20.5 µM (inactive) with EKVX; 18.7 µM (inactive) in the assay with SF-295; 31.8 µM (inactive) with A549; 21.8 µM (inactive) in the assay with OVCAR-4; 49.9 µM (inactive) in the assay with LOX IMVI; 5.08 µM (inactive) in the assay on CAKI-1. Also, the GI50 in the assay with NCI-H23 was > 100 µM (inactive).

For the compound `CC(=O)C(CN(C)C)C(c1ccccc1)c1c(O)c2ccccc2oc1=O` (configuration not stated), the GI50 in the assay with M14, in the assay with HOP-62, in the assay on CCRF-CEM, in the assay on UACC-62, in the assay with 786-0 and in the assay on COLO 205 was > 100 µM (inactive) throughout. The GI50 in the assay on TK-10, in the assay on SW-620, in the assay with NCI-H226, in the assay on EKVX, with SF-295 and with A549 was > 100 µM (inactive) throughout. Also, the GI50 in the assay on OVCAR-4, in the assay on LOX IMVI, in the assay with CAKI-1 and in the assay with NCI-H23 was > 100 µM (inactive) each time.

With `O=C(CC(=O)c1ccccc1)CC(O)(c1ccccc1)c1ccccc1`, the GI50 with M14 was 3.61 µM (inactive); in the assay with HOP-62 it was 3.34 µM (inactive); in the assay on CCRF-CEM it was 3.37 µM (inactive); in the assay with UACC-62 it was 3.21 µM (inactive); in the assay on COLO 205 it was 10.5 µM (inactive); in the assay with TK-10 it was 9.82 µM (inactive). Also, the GI50 is 4.02 µM (inactive) with SW-620; 3.87 µM (inactive) in the assay on NCI-H226; 6.1 µM (inactive) in the assay with EKVX; 4.42 µM (inactive) with SF-295; 3.13 µM (inactive) with OVCAR-4; 5.7 µM (inactive) in the assay with UO-31. In addition, the figures for the GI50 in the assay with CAKI-1 and with NCI-H23 were 2.9 µM (inactive) and 3.37 µM (inactive), respectively.

With `CCOc1ccc(C2=C(Cl)c3cc(OC)c(OC)cc3C2Cl)cc1` (configuration not stated), the GI50 with M14 is 35.8 µM (inactive); in the assay with CCRF-CEM, 25.2 µM (inactive); with UACC-62, 26.2 µM (inactive); with COLO 205 it was 63.5 µM (inactive); with TK-10, 79.8 µM (inactive); in the assay on SW-620 it was 29.2 µM (inactive). Besides, the GI50 with NCI-H226 is 30.8 µM (inactive); with EKVX, 66.7 µM (inactive); in the assay on SF-295, 35 µM (inactive); in the assay on UO-31, 45 µM (inactive); with LOX IMVI it was 19.5 µM (inactive); in the assay on CAKI-1, 46.1 µM (inactive). Moreover, the GI50 in the assay on NCI-H23 is 44.4 µM (inactive).

Regarding `COc1ccc(C=O)c(NC(=O)C(C)C)c1`, the GI50 in the assay with M14 was 37.6 µM (inactive); with CCRF-CEM, > 10 µM (inactive); in the assay with UACC-62, 30.3 µM (inactive); with 786-0 it was 74.6 µM (inactive); in the assay with COLO 205, 18.2 µM (inactive); with TK-10 it was 85.7 µM (inactive). For the same compound, the GI50 in the assay with SW-620 is > 10 µM (inactive); with NCI-H226, > 10 µM (inactive); with EKVX, 31.6 µM (inactive); in the assay on SF-295 it was 32.7 µM (inactive); with A549, 27.2 µM (inactive); in the assay on OVCAR-4, 27 µM (inactive). The GI50 in the assay on UO-31 was 33.3 µM (inactive); with LOX IMVI it was 31.7 µM (inactive); in the assay on NCI-H23, 26 µM (inactive).

With `O=C1c2ccccc2CCCCCCCCCCC12OCCCO2`, the GI50 is 51.3 µM (inactive) in the assay with M14; 49.9 µM (inactive) with HOP-62; 25.3 µM (inactive) with CCRF-CEM; 82.2 µM (inactive) in the assay on UACC-62; 67.1 µM (inactive) in the assay with 786-0; 19.2 µM (inactive) in the assay with COLO 205. The GI50 was > 100 µM (inactive) with TK-10; 35.6 µM (inactive) in the assay on NCI-H226; 34.7 µM (inactive) in the assay on SF-295; 28.8 µM (inactive) in the assay with A549; 57.1 µM (inactive) in the assay with OVCAR-4; 79.3 µM (inactive) in the assay with UO-31. Besides, the GI50 with LOX IMVI was 29.2 µM (inactive); in the assay with CAKI-1 it was 25.5 µM (inactive); in the assay on NCI-H23, 40.3 µM (inactive).

As for `CN(C)CC1(Cc2ccccc2)CC/C(=C\c2ccccc2)C1=O` (configuration not stated), the GI50 in the assay on M14 is 49.3 µM (inactive); in the assay on HOP-62 it was > 100 µM (inactive); with CCRF-CEM it was 27 µM (inactive); in the assay on UACC-62, 15.1 µM (inactive); with 786-0 it was 35.1 µM (inactive); in the assay with COLO 205, 32.9 µM (inactive). Also, the GI50 with TK-10 was > 100 µM (inactive); in the assay with SW-620, 20.8 µM (inactive); with NCI-H226 it was 92.9 µM (inactive); in the assay on SF-295 it was 62.2 µM (inactive); in the assay with A549, 96.4 µM (inactive); in the assay with OVCAR-4 it was 51.3 µM (inactive). Also, the GI50 with UO-31 was 47.8 µM (inactive); in the assay on LOX IMVI, 29.6 µM (inactive); with CAKI-1 it was 49.1 µM (inactive); with NCI-H23 it was 44.8 µM (inactive).

As to `c1ccc(N2CCN(CCN3CCc4c([nH]c5ccccc45)C3c3cccnc3)CC2)cc1` (configuration not stated), the GI50 was > 100 µM (inactive) in the assay on M14; 89.1 µM (inactive) with HOP-62; > 100 µM (inactive) in the assay with CCRF-CEM; > 100 µM (inactive) with UACC-62; 33.1 µM (inactive) with 786-0; > 100 µM (inactive) with TK-10. The GI50 was > 100 µM (inactive) with SW-620; > 100 µM (inactive) in the assay on EKVX; 80 µM (inactive) in the assay on SF-295; > 100 µM (inactive) in the assay with A549; > 100 µM (inactive) with OVCAR-4; 23.8 µM (inactive) with UO-31. Moreover, the GI50 with CAKI-1 and with NCI-H23 was > 100 µM (inactive) each time.

Turning to `CC(C)Cc1cccc(C(C)C)c1NC(=O)CCC(=O)N/N=C1\C(=N/NC(=O)CCC(=O)Nc2c(C(C)C)cccc2C(C)C)C(c2ccc3c(c2)OCO3)Oc2ccccc21` (configuration not stated), the GI50 in the assay on M14 is > 100 µM (inactive); in the assay on HOP-62 it was 71.9 µM (inactive); with CCRF-CEM it was 28.8 µM (inactive); in the assay on UACC-62, 78.3 µM (inactive); in the assay on COLO 205, > 100 µM (inactive); with TK-10 it was > 100 µM (inactive). In addition, the GI50 with SW-620 is 46 µM (inactive); in the assay with NCI-H226, > 100 µM (inactive); in the assay on EKVX it was 9.64 µM (inactive); in the assay on SF-295 it was 48 µM (inactive); in the assay with A549, 65.3 µM (inactive); in the assay on OVCAR-4, 74.1 µM (inactive). For the same compound, the GI50 in the assay with UO-31 is 43.6 µM (inactive); in the assay with LOX IMVI it was 44.5 µM (inactive); with CAKI-1 it was 53.2 µM (inactive); in the assay on NCI-H23, > 100 µM (inactive).

As to `C[C@]12CCC(=O)CC1CCCC2=O` (some centres not stated), the GI50 with M14, in the assay on HOP-62, in the assay with CCRF-CEM, with UACC-62, with 786-0 and in the assay on COLO 205 was > 100 µM (inactive) each time. Also, the GI50 with TK-10, with SW-620, in the assay on EKVX, in the assay on SF-295, with A549 and in the assay on OVCAR-4 was > 100 µM (inactive) each time. Further, the GI50 in the assay on UO-31, with LOX IMVI, in the assay with CAKI-1 and with NCI-H23 was > 100 µM (inactive) in each case.

As to `CP(=O)(CCSc1ccccc1)c1ccccc1` (configuration not stated), the GI50 in the assay with M14, in the assay with HOP-62, in the assay with CCRF-CEM, with UACC-62, in the assay on 786-0 and in the assay on COLO 205 was > 100 µM (inactive) each time. Further, the GI50 with TK-10, in the assay with SW-620, in the assay on NCI-H226, in the assay with EKVX, in the assay with SF-295 and with A549 was > 100 µM (inactive) each time. Further, the GI50 with OVCAR-4, with UO-31, with LOX IMVI, in the assay with CAKI-1 and in the assay with NCI-H23 was > 100 µM (inactive) in each case.

Regarding `O=c1cc[nH]c2c1ccc1ncccc12`, the GI50 in the assay with M14, with HOP-62, in the assay with CCRF-CEM, in the assay on UACC-62, in the assay on 786-0 and in the assay with COLO 205 was > 100 µM (inactive) in each case. Moreover, the GI50 in the assay with TK-10, in the assay with SW-620, in the assay on NCI-H226, with EKVX, with A549 and with OVCAR-4 was > 100 µM (inactive) throughout. For the same compound, the GI50 in the assay with UO-31, in the assay with LOX IMVI and in the assay with NCI-H23 was > 100 µM (inactive) each time.

For `COc1cc([C@@H]2c3cc4c(cc3[C@@H](NC(=O)c3ccc(C#N)cc3)C3COC(=O)[C@@H]32)OCO4)cc(OC)c1O` (some centres not stated), the GI50 was 0.721 µM (active) in the assay on M14; 0.113 µM (active) with HOP-62; 0.0803 µM (active) in the assay with CCRF-CEM; 0.316 µM (active) in the assay with UACC-62; 0.411 µM (active) in the assay on 786-0; 2.94 µM (inactive) with COLO 205. Moreover, the GI50 was 1.81 µM (inactive) in the assay with TK-10; 0.331 µM (active) in the assay with SW-620; 0.0176 µM (active) with NCI-H226; 0.979 µM (active) with EKVX; 0.233 µM (active) in the assay on SF-295; < 0.01 µM (active) with A549. The GI50 in the assay on OVCAR-4 was 8.93 µM (inactive); in the assay on UO-31 it was 4.03 µM (inactive); in the assay on LOX IMVI, 0.26 µM (active); with CAKI-1, 1.14 µM (inactive); with NCI-H23, 0.198 µM (active).

For the origin of these results see ChEMBL document CHEMBL1201862, “PubChem BioAssay data set” (2004).
